Test results from patent US6713475B2, “Tricyclic benzodiazepines as vasopressin receptor antagonists” (Ortho-McNeil Pharmaceutical, Inc., priority 1999, dated 2004).

Key:
[1] = target: T1, human V-1 receptor (Homo sapiens, UniProt P37288); experiment: In vitro recombinant vasopressin receptor binding assay (V1 Bdg), displacement of 3H-arginine vasopressin; conditions: for inhibition at 0.1 µM: read-out: V1 Bdg (% inh, 0.1 uM)
T1 construct: expressed in transfected cells; host or cells: HEK-293
Protocol: In vitro Recombinant Vasopressin Receptor Binding Assay
Compounds were assessed for their ability to displace ^3H-arginine vasopressin from the human V-1 or V-2 receptor in HEK-293 cells. Assay buffer is 50 mM Tris-Cl, 5 mM MgCl2, 0.1% BSA (pH 7.5) containing 5 ug/ml of aprotinin, leupeptin, pepstatin, 50 ug/ml bacitracin, and 1 mM Pefabloc. ^3H-vasopressin is ^3H-arginine-8-vasopressin (68.5 Ci/mmol, final concentration in assay is 0.65-0.75 nM). Into wells of 96-well round bottom polypropylene plates were added buffer, test compound, membrane (containing cloned human V-1 or V-2 receptor), and ^3H-vasopressin. The reaction plates were allowed to sit at room temperature for one hour. The samples were filtered through Unifilter GF/C plates (presoaked in 0.3 polyethyleneimine). The plates were washed 5 times with cold physiological saline containing 0.05% Tween 20. After drying, the bottom of the filter plates were sealed and 0.025 ml of Microscint-20 was added to each filter. The top of the plate was sealed, and the plate was counted. Non-specific binding was determined by the addition of 1.25 uM arginine-8-vasopressin in those wells.

[2] = target: V2 (Homo sapiens, UniProt P30518); experiment: In vitro recombinant vasopressin receptor binding assay (V2 Bdg), displacement of 3H-arginine vasopressin; design: expressed in transfected cells; host or cells: HEK-293; conditions: for IC50: membrane with cloned human V-2 receptor (HEK-293); for V2 Bdg % inh: 0.1 uM, printed in parentheses in place of IC50
In short: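 Displacement of ³H-vasopressin from membranes of HEK-293 cells bearing cloned human V-2 receptor, incubated with test compound one hour at room temperature. Bound label was collected on PEI-soaked GF/C filters, washed with cold saline/0.05% Tween 20, and counted by scintillation.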

T1 sequence (P37288 whole entry): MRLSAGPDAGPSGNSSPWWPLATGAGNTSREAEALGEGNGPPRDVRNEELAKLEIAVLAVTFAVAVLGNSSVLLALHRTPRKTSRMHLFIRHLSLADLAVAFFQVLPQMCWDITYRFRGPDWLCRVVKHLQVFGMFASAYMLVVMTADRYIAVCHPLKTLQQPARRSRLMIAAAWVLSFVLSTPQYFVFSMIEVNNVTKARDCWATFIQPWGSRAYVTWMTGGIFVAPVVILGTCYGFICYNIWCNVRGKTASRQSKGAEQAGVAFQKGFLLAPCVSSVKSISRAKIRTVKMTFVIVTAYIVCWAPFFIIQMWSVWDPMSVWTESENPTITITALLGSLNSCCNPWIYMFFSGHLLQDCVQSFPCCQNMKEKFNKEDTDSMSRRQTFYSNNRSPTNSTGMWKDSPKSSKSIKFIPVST

Compound	inhibition at 0.1 µM [1]	IC50 [2]	V1 Bdg % inh ([1]; 1 uM)	V2 Bdg % inh [2]	other results
COc1cc(NC(=O)c2ccccc2-c2ccccc2)ccc1C(=O)N1CC2COCCN2Cc2ccccc21 (racemic) [Compound 14, (RS)-2-Phenyl-N-[3-methoxy-4-(1,3,4,12a-tetrahydro-6H-[1,4]oxazino[4,3-a][1,4]-benzodiazepin-11(12H)-yl-carbonyl)phenyl]benzamide]	36%	9 nM			
Cc1ccccc1C(=O)Nc1c(C)cc(C(=O)N2CC3CN(C)CCN3Cc3ccccc32)cc1C (racemic) [Compound 80, (RS)-2-Methyl-N-[2,6-dimethyl-4-(1,3,4,12a-tetrahydro-2-methyl-6H-[1,4]pyrazino[4,3-a][1,4]-benzodiazepin-11(12H)-yl-carbonyl)phenyl]benzamide]			(19%/1 uM)	(6%/0.1 uM)	
Cc1ccc(-c2ccccc2C(=O)Nc2ccc(C(=O)N3CC4COCCN4Cc4ccccc43)c(F)c2)cc1 (racemic) [Compound 30, (RS)-2-(4-Methyl-phenyl)-N-[3-fluoro-4-(1,3,4,12a-tetrahydro-6H-[1,4]oxazino[4,3-a][1,4]-benzodiazepin-11(12H)-yl-carbonyl)phenyl]benzamide]	74%	14 nM			
(RS)-2-Methyl-3-chloro-N-[3-chloro-4-(1,3,4,12a-tetrahydro-2-methyl-6H-[1,4]pyrazino[4,3-a][1,4]-benzodiazepin-11(12H)-yl-carbonyl)phenyl]benzamide [Compound 95]			(10%/1 uM)	(38%/0.1 uM)	
O=C(Nc1ccc(C(=O)N2CC3COCCN3Cc3ccccc32)c(Cl)c1)c1cccc(Cl)c1F (racemic) [Compound 18, (RS)-2-Fluoro-3-chloro-N-[3-chloro-4-(1,3,4,12a-tetrahydro-6H-[1,4]oxazino[4,3-a][1,4]-benzodiazepin-11(12H)-yl-carbonyl)phenyl]benzamide]	15%	18 nM			
CN1CCN2Cc3ccccc3N(C(=O)c3ccc(NC(=O)c4c(Cl)cccc4Cl)cc3Cl)CC2C1 (racemic) [Compound 98, (RS)-2,6-Dichloro-N-[3-chloro-4-(1,3,4,12a-tetrahydro-2-methyl-6H-[1,4]pyrazino[4,3-a][1,4]-benzodiazepin-11(12H)-yl-carbonyl)phenyl]benzamide]			(26%/1 uM)	(12%/0.1 uM)	
O=C(Nc1ccc(C(=O)N2C[C@H]3COCCN3Cc3ccccc32)c(Cl)c1)c1cc(O)ccc1-c1ccccc1 [Compound 8, (S)-2-Phenyl-5-hydroxy-N-[3-chloro-4-(1,3,4,12a-tetrahydro-6H-[1,4]oxazino[4,3-a][1,4]-benzodiazepin-11(12H)-yl-carbonyl)phenyl]benzamide]	32%	27 nM			
O=C(Nc1ccc(C(=O)N2CC3COCCN3Cc3ccccc32)cc1)c1ccccc1-c1ccccc1 (racemic) [Compound 20, (RS)-2-Phenyl-N-[4-(1,3,4,12a-tetrahydro-6H-[1,4]oxazino[4,3-a][1,4]-benzodiazepin-11(12H)-yl-carbonyl)phenyl]benzamide]	69%	8 nM			
CN1CCN2Cc3ccccc3N(C(=O)c3ccc(NC(=O)c4cc(F)c(F)c(F)c4F)cc3Cl)CC2C1 (racemic) [Compound 93, (RS)-2,3,4,5-Tetrafluoro-N-[3-chloro-4-(1,3,4,12a-tetrahydro-2-methyl-6H-(1,4]pyrazino[4,3-a][1,4]-benzodiazepin-11(12H)-yl-carbonyl)phenyl]benzamide]			(49%/1 uM)	(24%/0.1 uM)	
Cc1ccccc1C(=O)Nc1ccc(C(=O)N2CC3COCCN3Cc3ccccc32)c(C)c1 (racemic) [Compound 27, (RS)-2-M ethyl-N-[3-methyl-4-(1,3,4,12a-tetrahydro-6H-[1,4]oxazino[4,3-a][1,4]-benzodiazepin-11(12H)-yl-carbonyl)phenyl]benzamide]	7%	13 nM			
COc1cc(C(=O)N2CC3CN(C)CCN3Cc3ccccc32)ccc1NC(=O)c1ccccc1-c1ccccc1 (racemic) [Compound 72, (RS)-2-Phenyl-N-[2-methoxy-4-(1,3,4,12a-tetrahydro-2-methyl-6H-[1,4]pyrazino[4,3-a][1,4]-benzodiazepin-11(12H)-yl-carbonyl)phenyl]benzamide]			(6%/1 uM)	(48%/0.1 uM)	
O=C(Nc1ccc(C(=O)N2CC3CSCCN3Cc3cc(Cl)ccc32)cc1)c1ccccc1-c1ccccc1 (racemic) [Compound 37, (RS)-2-Phenyl-N-[4-(8-chloro-1,3,4,12a-tetrahydro-6H-[1,4]thiazino[4,3-a][1,4]-benzodiazepin-11(12H)-yl-carbonyl)phenyl]benzamide]	75%	22 nM			
COc1cc(NC(=O)c2ccccc2C)ccc1C(=O)N1CC2CN(C)CCN2Cc2ccccc21 (racemic) [Compound 83, (RS)-2-Methyl-N-[3-methoxy-4-(1,3,4,12a-tetrahydro-2-methyl-6H-[1,4]pyrazino[4,3-a][1,4]-benzodiazepin-11(12H)-yl-carbonyl)phenyl]benzamide]			(44%/1 uM)	(10%/0.1 uM)	
(RS)-2-Phenyl-N-[4-(9-chloro-1,3,4,12a-tetrahydro-6H-[1,4]thiazino[4,3-a][1,4]-benzodiazepin-11(12H)-yl-carbonyl)phenyl]benzamide [Compound 34]				(41%/0.1 uM)	V1 Bdg % inh ([1]; 10 uM): 1%/10 uM
Cc1cc(NC(=O)c2ccccc2-c2ccccc2)ccc1C(=O)N1CC2COCCN2Cc2ccccc21 (racemic) [Compound 29, (RS)-2-Phenyl-N-[3-methyl-4-(1,3,4,12a-tetrahydro-6H-[1,4]oxazino[4,3-a][1,4]-benzodiazepin-11(12H)-yl-carbonyl)phenyl]benzamide]	3%	6 nM			
COc1cc(NC(=O)c2ccccc2-c2ccc(C)cc2)ccc1C(=O)N1CC2CN(C)CCN2Cc2ccccc21 (racemic) [Compound 85, (RS)-2-(4-Methyl-phenyl)-N-[3-methoxy-4-(1,3,4,12a-tetrahydro-2-methyl-6H-[1,4]pyrazino[4,3-a][1,4]-benzodiazepin-11(12H)-yl-carbonyl)phenyl]benzamide]			(19%/1 uM)	(54%/0.1 uM)	
CN(C)c1cc(NC(=O)c2ccccc2-c2ccccc2)ccc1C(=O)N1C[C@H]2CSCCN2Cc2ccccc21 [Compound 46, (S)-2-Phenyl-N-[3-dimethylamino-4-(1,3,4,12a-tetrahydro-6H-[1,4]thiazino[4,3-a][1,4]-benzodiazepin-11(12H)-yl-carbonyl)phenyl]benzamide]	8%	47 nM			
(RS)-2-Phenyl-N-[4-(8,9-dimethoxy-1,3,4,12a-tetrahydro-6H-[1,4]thiazino[4,3-a][1,4]-benzodiazepin-11(12H)-yl-carbonyl)phenyl]benzamide [Compound 33]				(19%/0.1 uM)	V1 Bdg % inh ([1]; 10 uM): 6%/10 uM
Cc1ccc(F)c(C(=O)Nc2ccc(C(=O)N3CC4CN(C)CCN4Cc4ccccc43)c(Cl)c2)c1 (racemic) [Compound 96, (RS)-2-Fluoro-5-methyl-N-[3-chloro-4-(1,3,4,12a-tetrahydro-2-methyl-6H-[1,4]pyrazino[4,3-a][1,4]-benzodiazepin-11(12H)-yl-carbonyl)phenyl]benzamide]			(9%/1 uM)	(3%/0.1 uM)	
CN1CCN2Cc3ccccc3N(C(=O)c3ccc(NC(=O)c4cccc(Cl)c4Cl)cc3Cl)CC2C1 (racemic) [Compound 97, (RS)-2,3-Dichloro-N-[3-chloro-4-(1,3,4,12a-tetrahydro-2-methyl-6H-[1,4]pyrazino[4,3-a][1,4]-benzodiazepin-11(12H)-yl-carbonyl)phenyl]benzamide]			(21%/1 uM)	(9%/0.1 uM)	
Cc1ccc(-c2ccccc2C(=O)Nc2ccc(C(=O)N3CC4COCCN4Cc4ccccc43)c(Cl)c2)cc1 (racemic) [Compound 25, (RS)-2-(4-Methyl-phenyl)-N-[3-chloro-4-(1,3,4,12a-tetrahydro-6H-[1,4]oxazino[4,3-a][1,4]-benzodiazepin-11(12H)-yl-carbonyl)phenyl]benzamide]	60%	12 nM			
Cc1cccc(C(=O)Nc2ccc(C(=O)N3CC4CSCCN4Cc4ccccc43)c(Cl)c2)c1I (racemic) [Compound 42, (RS)-2-Iodo-3-methyl-N-[3-chloro-4-(1,3,4,12a-tetrahydro-6H-[1,4]thiazino[4,3-a][1,4]-benzodiazepin-11(12H)-yl-carbonyl)phenyl]benzamide]				(62%/0.1 uM)	V1 Bdg (% inh, 0.1 uM) [1]: 0%
(RS)-3,5-Dichloro-N-[3-chloro-4-(1,3,4,12a-tetrahydro-6H-[1,4]thiazino[4,3-a][1,4]-benzodiazepin-11(12H)-yl-carbonyl)phenyl]benzamide [Compound 43]				(47%/0.1 uM)	V1 Bdg (% inh, 0.1 uM) [1]: 11%
